{"source": "patent US5847092A", "about": "(Zambon Group S.p.A., priority 1994, dated 1998)", "key": {"[1]": {"conditions": "literature; cited from earlier work"}, "[2]": {"test_system": "Klebsiella pneumoniae ZC 2", "assay": "In vitro antibacterial activity, MIC, broth microdilution", "assay_type": "cell-based", "conditions": "Klebsiella pneumoniae, ZC2; K. pneumoniae ZC 2; MHB; 37° C., 18 hours; read-out: minimum inhibiting concentration MIC", "in_short": "(§1)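 Twofold serial broth microdilution in Mueller Hinton Broth, supplemented with 5% horse serum for S. pneumoniae and S. pyogenes. Plates incubated 37 °C for 18 hours; MIC (μg/ml) taken as lowest concentration inhibiting bacterial growth.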"}, "[3]": {"test_system": "Enterococcus faecalis ATCC 29212", "assay": "In vitro antibacterial activity, MIC, broth microdilution", "assay_type": "cell-based", "conditions": "Enterococcus faecalis, ATCC29212; E. faecalis ATCC 29212; MHB; 37° C., 18 hours; read-out: minimum inhibiting concentration MIC", "in_short": "as §1"}, "[4]": {"test_system": "Escherichia coli ATCC 25922", "assay": "In vitro antibacterial activity, MIC, broth microdilution", "assay_type": "cell-based", "conditions": "Escherichia coli, ATCC25922; E. coli ATCC 25922; MHB; 37° C., 18 hours; read-out: minimum inhibiting concentration MIC", "in_short": "as §1"}, "[5]": {"test_system": "Streptococcus pneumoniae BS 3", "assay": "In vitro antibacterial activity, MIC, broth microdilution", "assay_type": "cell-based", "conditions": "Streptococcus pneumoniae, BS3; S. pneumoniae BS 3; MHB + 5% horse serum; 37° C., 18 hours; read-out: minimum inhibiting concentration MIC", "in_short": "as §1"}, "[6]": {"test_system": "Staphylococcus aureus PV 14", "assay": "In vitro antibacterial activity, MIC, broth microdilution", "assay_type": "cell-based", "conditions": "Staphylococcus aureus, PV14; S. aureus PV 14; MHB; 37° C., 18 hours; read-out: minimum inhibiting concentration MIC", "in_short": "as §1"}, "[7]": {"test_system": "Streptococcus pyogenes A 26", "assay": "In vitro antibacterial activity, MIC, broth microdilution", "assay_type": "cell-based", "conditions": "Streptococcus pyogenes, A26; S. pyogenes A 26; MHB + 5% horse serum; 37° C., 18 hours; read-out: minimum inhibiting concentration MIC", "in_short": "as §1"}, "[8]": {"test_system": "Streptococcus pyogenes C 203", "assay": "In vitro antibacterial activity, MIC, broth microdilution", "assay_type": "cell-based", "conditions": "Streptococcus pyogenes, C203; S. pyogenes C 203; MHB + 5% horse serum; 37° C., 18 hours; read-out: minimum inhibiting concentration MIC", "in_short": "as §1"}, "[9]": {"test_system": "Streptococcus pneumoniae BS 4", "assay": "In vitro antibacterial activity, MIC, broth microdilution", "assay_type": "cell-based", "conditions": "Streptococcus pneumoniae, BS4; S. pneumoniae BS 4; MHB + 5% horse serum; 37° C., 18 hours; read-out: minimum inhibiting concentration MIC", "in_short": "as §1"}, "[10]": {"conditions": "literature; cited from earlier work", "remark": "listed apart in the source"}, "[11]": {"test_system": "Streptococcus pyogenes C 203", "assay": "In vivo antibacterial activity, experimental pulmonary infection in mouse", "conditions": "for ED50: Streptococcus pyogenes, C203, ip, 240 h, intraperitoneal single dose, read-out: average protecting dose PD50", "procedure": "The in vivo antibacterial activity of the compounds of formula (I), expressed as average protecting dose PD50 (mg/Kg), was evaluated by means of experimental pulmonary infection induced in mouse by Streptococcus pyogenes (example 23).\nb) In vivo antibacterial activity\nThe therapeutical effectiveness, expressed as average protecting dose (PD50), of the considered compounds of formula (I) was evaluated by experimental pulmonary infection induced in mouse by Streptococcus pyogenesC 203.\nCharles River albin mice (strain CD 1), of body weight comprised between 23-35 g, stabulated in groups of 6 for cage and normo-feeded with standard diet and water ad libitum were used. A suspension of S. pyogenes C 203 (corresponding about to 10^8 UFC) in tryptose broth (0.05 ml) was intranasally administered to each mouse anesthesized with a mixture of ethyl ether and chloroform.\nThe compounds under examination were intraperitoneally administered as a single dose, in 0.2% Tween suspension, 24 hours before or 1 hour after the infection.\nMice mortality observation was prolonged up to 10 days from the infection.\nPD50 calculation, expressed as (mg/Kg), was carried out through the analysis of probit.\nIn vivo antibacterial activity, expressed as average protecting dose PD50 (mg/Kg), 24 hours before and 1 hour after the experimental pulmonary infection induced in mouse by Streptococcus pyogenes C 203, of the compounds 4, 10, 16-19, 21, 23, 26-27, 29-30, 33-35 and 38 and of the reference compounds Roxithromycin and Clarithromycin."}, "[12]": {"test_system": "Gram-positive and Gram-negative bacteria", "conditions": "literature; cited from earlier work"}, "eukaryotic parasites": {"test_system": "eukaryotic parasites", "conditions": "literature; cited from earlier work"}}, "note": "Read-outs that look alike come from different tables or passages of the source.", "data": [{"smiles": "CC[C@H]1OC(=O)[C@H](C)[C@@H](O[C@H]2C[C@@](C)(OC)[C@@H](O)[C@H](C)O2)[C@H](C)[C@@H](O[C@@H]2O[C@H](C)C[C@H](N(C)C)[C@H]2O)[C@](C)(O)C[C@@H](C)/C(=N\\OCOCCOC)[C@H](C)[C@@H](O)[C@]1(C)O", "note": "[Roxithromycin, Erythromycin A 9-[0-[(2-methoxyethoxy)methyl]oxime], reference compound]", "values": [{"measurement": "pharmacokinetic properties / bioavailability (in words)", "setting": "[1]", "result": "better pharmacokinetic properties"}, {"measurement": "MIC", "setting": "[2]", "result": 256, "unit": "µg/mL"}, {"measurement": "MIC", "setting": "[3]", "result": 4, "unit": "µg/mL"}, {"measurement": "MIC", "setting": "[4]", "result": 28, "unit": "µg/mL"}, {"measurement": "MIC", "setting": "[5]", "result": 0.0312, "unit": "µg/mL"}, {"measurement": "MIC", "setting": "[6]", "result": 1, "unit": "µg/mL"}, {"measurement": "MIC", "setting": "[7]", "result": 0.0625, "unit": "µg/mL"}, {"measurement": "MIC", "setting": "[8]", "result": 0.0625, "unit": "µg/mL"}, {"measurement": "MIC", "setting": "[9]", "result": 0.0625, "unit": "µg/mL"}, {"measurement": "stability to the acids (in words)", "setting": "[10]", "result": "superior stability to the acids"}, {"measurement": "ED50", "setting": "[11]; 1 hour after infection", "result": 0.9, "unit": "mg/kg"}, {"measurement": "ED50", "setting": "[11]; 24 hours before infection", "result": "> 25", "unit": "mg/kg"}, {"measurement": "in vivo activity, pulmonary infection (in words)", "setting": "[11]; administered 24 hours before the infection", "result": "inactive"}, {"measurement": "spectrum of activity in vitro (in words)", "setting": "[12]", "result": "comparable to that of Erythromycin A"}]}, {"smiles": "CC[C@H]1OC(=O)[C@H](C)[C@@H](O[C@H]2C[C@@](C)(OC)[C@@H](O)[C@H](C)O2)[C@H](C)[C@@H](O[C@@H]2O[C@H](C)C[C@H](N(C)C)[C@H]2O)[C@](C)(O)C[C@@H](C)C(=O)[C@H](C)[C@@H](O)[C@]1(C)O", "note": "[Erythromycin A]", "values": [{"measurement": "activity against eukaryotic parasites (in words)", "setting": "eukaryotic parasites", "result": "active against eukaryotic parasites"}, {"measurement": "spectrum of activity in vitro (in words)", "setting": "[12]", "result": "antibacterial activity mainly against Gram-positive microorganisms"}]}, {"smiles": "CC[C@H]1OC(=O)[C@H](C)[C@@H](O[C@H]2C[C@@](C)(OC)[C@@H](O)[C@H](C)O2)[C@H](C)[C@@H](O[C@@H]2O[C@H](C)C[C@H](N(C)C)[C@H]2O)[C@](C)(O)C[C@@H](C)C(=NOCCN(CC)CC)[C@H](C)[C@@H](O)[C@]1(C)O", "note": "[Erythromycin A 9-[0-[(2-diethylamino)ethyl]oxime]]", "values": [{"measurement": "pharmacokinetic properties / bioavailability (in words)", "setting": "[1]", "result": "better pharmacokinetic properties"}, {"measurement": "stability to the acids (in words)", "setting": "[10]", "result": "superior stability to the acids"}, {"measurement": "spectrum of activity in vitro (in words)", "setting": "[12]", "result": "comparable to that of Erythromycin A"}]}]}
